In patent US20100248321A1, “SURFACTANT AMENDMENTS FOR THE STIMULATION OF BIOGENIC GAS GENERATION IN DEPOSITS OF CARBONACEOUS MATERIALS” (LUCA Technologies, Inc., priority 2009, published 2010):

Assays:
[1] = test system: coal samples from the Powder River Basin in Wyoming; test: biogenic methane generation from coal samples after surfactant amendment; design: species or system microbial consortia present in coal and associated waters; details: after more than 100 days; headspace methane by gas chromatograph; surfactants tested at 0.05 to 0.5 g/L; 2.5 gram coal, 15 mL formation water
Description: (§1) Experiments were conducted to compare biogenic methane generation from coal samples after introducing an amendment of a surfactant. For each experiment, methane generation from coal samples from the Powder River Basin in Wyoming and shale samples from the Antrim Shale in Michigan was periodically measured over the course of more than 100 days. Each 2.5 gram coal sample or 5 g shale sample was placed in a 30 ml serum bottle with 15 mL of water that was also taken from the formation. The coal or shale and formation water were placed in the serum bottle while working in an anaerobic glove bag. The headspace in the bottle above the sample was flushed with a mixture of N2 and CO2 (95/5).
(§2) Amendments were then added to the samples. Surfactants were tested at concentrations of 0.05 to 0.5 g/L. Surfactants were tested alone and in combination with other amendments, including proteins (e.g., yeast extract), phosphate and acetate. The samples were then sealed, removed from the glove bag, and stored at a temperature close to the in situ temperature for the coal or shale samples over the course of the experiments.
(§3) The methane levels in the headspace above the samples was periodically measured and recorded. The methane was measured by running samples of the headspace gases through a gas chromatograph equipped with a thermal conductivity detector.

[2] = test system: shale samples from the Antrim Shale in Michigan; test: biogenic methane generation from shale samples after surfactant amendment; design: species or system microbial consortia present in shale and associated waters; details: after more than 100 days; headspace methane by gas chromatograph; surfactants tested at 0.05 to 0.5 g/L; 5 g shale, 15 mL formation water
Description: as §1, §2, §3

Compound | methane production in coal containing bottles [1] | methane production in shale containing bottles [2]
CCCCOCCO [2-butoxyethanol] | highest levels of methane production | highest levels of methane production
CCCCCCCC/C=C\CCCCCCCC(=O)N(C)CCS(=O)(=O)[O-].[Na+] [Geropon T-77] | highest levels of methane production | 
Benzalkonium chloride | highest levels of methane production | 
